This assay has as its target T1, hFXR (Homo sapiens, UniProt Q96RI1).
T1 construct: expressed in transfected cells; host or cells: CV-1 cells
T1 sequence (Q96RI1 1-486): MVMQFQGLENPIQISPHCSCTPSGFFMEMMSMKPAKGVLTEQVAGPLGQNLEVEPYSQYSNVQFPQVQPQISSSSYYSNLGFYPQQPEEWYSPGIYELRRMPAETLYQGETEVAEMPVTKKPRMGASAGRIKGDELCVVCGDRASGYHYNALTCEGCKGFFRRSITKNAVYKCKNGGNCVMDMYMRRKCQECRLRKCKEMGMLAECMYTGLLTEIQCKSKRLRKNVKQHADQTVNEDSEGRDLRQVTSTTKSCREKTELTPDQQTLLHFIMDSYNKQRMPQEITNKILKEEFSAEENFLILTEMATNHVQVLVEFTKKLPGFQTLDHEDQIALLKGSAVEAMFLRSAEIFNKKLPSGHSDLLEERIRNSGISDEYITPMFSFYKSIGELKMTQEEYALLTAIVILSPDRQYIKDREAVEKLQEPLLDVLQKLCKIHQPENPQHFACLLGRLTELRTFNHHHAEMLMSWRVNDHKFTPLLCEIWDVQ
T1 sequence (P19793 1-462 partner): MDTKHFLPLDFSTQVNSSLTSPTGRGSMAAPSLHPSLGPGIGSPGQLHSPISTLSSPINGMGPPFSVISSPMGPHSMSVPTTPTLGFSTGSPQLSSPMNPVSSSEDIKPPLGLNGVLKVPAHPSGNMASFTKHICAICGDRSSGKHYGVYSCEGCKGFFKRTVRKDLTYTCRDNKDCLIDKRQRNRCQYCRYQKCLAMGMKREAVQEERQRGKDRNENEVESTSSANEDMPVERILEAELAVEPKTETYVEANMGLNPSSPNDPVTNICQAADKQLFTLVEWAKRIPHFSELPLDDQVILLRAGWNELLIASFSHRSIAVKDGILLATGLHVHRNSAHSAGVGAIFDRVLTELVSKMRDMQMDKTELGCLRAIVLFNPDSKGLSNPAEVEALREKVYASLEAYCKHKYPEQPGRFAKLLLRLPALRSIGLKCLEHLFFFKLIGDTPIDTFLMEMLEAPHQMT
The assay is described as follows: In Vitro FXR Assay (TK): hFXR/hRXR TK-ECRE-luc reporter in transfected CV-1 cells. In kind it is cell-based. The settings on record: 18 hrs incubation, luminescence, compounds with maximum efficacy <25% of the Fexarmine control classified as '+'. As for the experimental part: Example B-1: In Vitro FXR Assay (TK)
CV-1 cells were seeded at a density of 2,000,000 cells in a T175 flask with DMEM+10% charcoal double-stripped FBS and incubated at 37° C. in 5% CO2 for 18 h (O/N).
After 18 h of incubation, the medium in the T175 flask was changed with fresh DMEM+10% charcoal super-stripped serum. In a polypropylene tube, 2500 μL OptiMEM (Life Technologies, Cat #31985-062) was combined with expression plasmids for hFXR, hRXR, TK-ECRE-luc and pCMX-YFP. The tube was then briefly vortexed and incubated at room temperature for 5 minutes. Transfection reagent (X-tremeGENE HP from Roche, Cat #06 366 236 001) was added to the OptiMEM/plasmid mixture vortexed and incubated at room temperature for 20 minutes. Following incubation, the transfection reagent/DNA mixture complex was added to cells in the T175 flask and the cells were incubated at 37° C. in 5% CO2 for 18 h (O/N).
Compounds were serially diluted in DMSO and added to transfected CV-1 cells. The cells were then incubated for 18 hrs. The next day cells were lysed and examined for luminescence.

SMILES strings stand for the structures.

For 19 molecules, EC50 results are on record in patent US20200131142A1, “FARNESOID X RECEPTOR AGONISTS AND USES THEREOF” (Metacrine, Inc., priority 2017, published 2020).

One may read the EC50 as the concentration at which the effect is half-maximal. A low value points to greater potency.

In turn, `COc1ncc(-c2cccc(N(CC34CCC(c5ccc(OC)c(C)c5)(CC3)CC4)C(=O)[C@H]3CC[C@H](O)CC3)c2)s1` [Compound 11, trans-4-Hydroxy-N-((4-(4-methoxy-3-methylphenyl)bicyclo[2.2.2]octan-1-yl)methyl)-N-(3-(2-methoxythiazol-5-yl)phenyl)cyclohexanecarboxamide] registered an EC50 of at most 0.25 µM. The value for `COc1ccc([C@H]2CC[C@H](CN(c3cc(-c4cnc(C5CC5)s4)ccn3)C(=O)[C@H]3CC[C@H](O)CC3)CC2)nc1C#N` [Compound 9.23, trans-N-((trans-4-(6-Cyano-5-methoxypyridin-2-yl)cyclohexyl)methyl)-N-(4-(2-cyclopropylthiazol-5-yl)pyridin-2-yl)-4-hydroxycyclohexanecarboxamide] was at most 0.25 µM; that for `COc1ccc([C@H]2CC[C@H](CN(c3cccc(-c4cncs4)c3)C(=O)[C@H]3CC[C@H](O)CC3)CC2)cc1C` [Compound 6.02, trans-4-Hydroxy-N-((trans-4-(4-methoxy-3-methylphenyl)cyclohexyl)methyl)-N-(3-(thiazol-5-yl)phenyl)cyclohexanecarboxamide] was 0.25 to 1 µM; that for `COc1ccc([C@H]2CC[C@H](CN(c3cccc(/C=C/c4nccs4)c3)C(=O)[C@H]3CC[C@H](O)CC3)CC2)cc1C` [Compound 6.06, trasn-4-Hydroxy-N-((trans-4-(4-methoxy-3-methylphenyl)cyclohexyl)methyl)-N-(3-((E)-2-(thiazol-2-yl)vinyl)phenyl)cyclohexanecarboxamide] was at most 0.25 µM. For `COc1ccc([C@H]2CC[C@H](CN(c3cccc(-c4sc(C)nc4C)c3)C(=O)[C@H]3CC[C@H](O)CC3)CC2)cc1C` [Compound 7.04, trans-N-(3-(2,4-Dimethylthiazol-5-yl)phenyl)-4-hydroxy-N-((trans-4-(4-methoxy-3-methylphenyl)cyclohexyl)methyl) cyclohexanecarboxamide] the value was at least 1 µM.

`COc1ccc([C@H]2CC[C@H](CN(c3cccc(-c4cnc(C)s4)c3)C(=O)[C@H]3CC[C@H](O)CC3)CC2)cc1C` [Compound 6.03, trans-4-Hydroxy-N-((trans-4-(4-methoxy-3-methylphenyl)cyclohexyl)methyl)-N-(3-(2-methylthiazol-5-yl)phenyl)cyclohexanecarboxamide]: the EC50 is at most 0.25 µM.

In turn, `COc1ccc([C@H]2CC[C@H](CN(c3cccc(-c4cnc(N(C)C)s4)c3)C(=O)[C@H]3CC[C@H](O)CC3)CC2)cc1C` [Compound 7.13, trans-N-(3-(2-(Dimethylamino)thiazol-5-yl)phenyl)-4-hydroxy-N-((trans-4-(4-methoxy-3-methylphenyl)cyclohexyl)methyl) cyclohexanecarboxamide] gave an EC50 of at most 0.25 µM.

`C#Cc1cc([C@H]2CC[C@H](CN(c3cccc(-c4cnc(OC)s4)c3)C(=O)[C@H]3CC[C@H](O)CC3)CC2)ccc1OC` [Compound 9.05, trans-N-((trans-4-(3-Ethynyl-4-methoxyphenyl)cyclohexyl)methyl)-4-hydroxy-N-(3-(2-methoxythiazol-5-yl)phenyl)cyclohexanecarboxamide] came in with an EC50 of at most 0.25 µM.

`COc1ncc(-c2cccc(N(C[C@H]3CC[C@H](c4ccc(OC)c(C)c4)CC3)C(=O)[C@H]3CC[C@H](OC(C)C)CC3)c2)s1` [Compound 9.34, trans-4-Isopropoxy-N-((trans-4-(4-methoxy-3-methylphenyl)cyclohexyl)methyl)-N-(3-(2-methoxythiazol-5-yl)phenyl)cyclohexanecarboxamide] yielded an EC50 of at most 0.25 µM. As for `COc1ncc(-c2cccc(N(C[C@H]3CC[C@H](c4ccc(OC)c(C)c4)CC3)C(=O)[C@H]3CC[C@@H](O)CC3)c2)s1` [Compound 5, cis-4-Hydroxy-N-((trans-4-(4-methoxy-3-methylphenyl)cyclohexyl)methyl)-N-(3-(2-methoxythiazol-5-yl)phenyl)cyclohexanecarboxamide], the EC50 is at most 0.25 µM. In turn, `COc1ncc(-c2cccc(N(C[C@@H]3CC[C@@H](c4ccc(OC)c(C)c4)CC3C)C(=O)[C@H]3CC[C@H](O)CC3)c2)s1` (stereo partly drawn) [Compound 9.11, trans-4-Hydroxy-N-((trans-4-(4-methoxy-3-methylphenyl)-2-methylcyclohexyl)methyl)-N-(3-(2-methoxythiazol-5-yl)phenyl)cyclohexanecarboxamide] displayed an EC50 of at most 0.25 µM.

As for `COc1ccc([C@H]2CC[C@H](CN(c3cccc(-c4cnc(C(C)C)s4)c3)C(=O)[C@H]3CC[C@H](O)CC3)CC2)cc1C` [Compound 7.06], the EC50 was at most 0.25 µM. Molecule `COc1ccc([C@H]2CC[C@H](CN(c3cccc(-c4csc(C)n4)c3)C(=O)[C@H]3CC[C@H](O)CC3)CC2)cc1C` [Compound 7.02, trans-4-Hydroxy-N-((trans-4-(4-methoxy-3-methylphenyl)cyclohexyl)methyl)-N-(3-(2-methylthiazol-4-yl)phenyl)cyclohexanecarboxamide] registered an EC50 of 0.25 to 1 µM. `COc1ccc([C@H]2CC[C@H](CN(c3cccc(-c4cnc(N5CCCC5)s4)c3)C(=O)[C@H]3CC[C@H](O)CC3)CC2)cc1C` [Compound 6, trans-4-Hydroxy-N-((trans-4-(4-methoxy-3-methylphenyl)cyclohexyl)methyl)-N-(3-(2-(pyrrolidin-1-yl)thiazol-5-yl)phenyl)cyclohexanecarboxamide] had an EC50 of at most 0.25 µM. In turn, `COc1ncc(-c2cccc(N(C[C@H]3CC[C@H](c4ccc(OC)c(C)c4)CC3)C(=O)[C@H]3CC[C@H](O)CC3)c2)s1` [Compound 1, trans-4-Hydroxy-N-((trans-4-(4-methoxy-3-methylphenyl)cyclohexyl)methyl)-N-(3-(2-methoxythiazol-5-yl)phenyl)cyclohexanecarboxamide] returned an EC50 of at most 0.25 µM.

As to `COc1ccc([C@H]2CC[C@H](CN(c3cccc(CCc4nccs4)c3)C(=O)[C@H]3CC[C@H](O)CC3)CC2)cc1C` [Compound 6.07, trans-4-Hydroxy-N-((trans-4-(4-methoxy-3-methylphenyl)cyclohexyl)methyl)-N-(3-(2-(thiazol-2-yl)ethyl)phenyl)cyclohexanecarboxamide], the EC50 is at most 0.25 µM.

Take `COc1ccc([C@H]2CC[C@H](CN(c3cccc(-c4cnc(C5CC5)s4)c3)C(=O)[C@H]3CC[C@H](O)CC3)CC2)nc1C` [Compound 9.19, trans-N-(3-(2-Cyclopropylthiazol-5-yl)phenyl)-4-hydroxy-N-((trans-4-(5-methoxy-6-methylpyridin-2-yl)cyclohexyl)methyl)cyclohexanecarboxamide]: the EC50 was at most 0.25 µM.

In turn, `COc1ccc([C@H]2CC[C@H](CN(c3cccc(-c4cnc(OCCO)s4)c3)C(=O)[C@H]3CC[C@H](O)CC3)CC2)cc1C` [Compound 7.18, trans-4-Hydroxy-N-(3-(2-(2-hydroxyethoxy)thiazol-5-yl)phenyl)-N-((trans-4-(4-methoxy-3-methylphenyl)cyclohexyl)methyl) cyclohexanecarboxamide] gave an EC50 of at most 0.25 µM. As for `COc1ncc(-c2cccc(N(C[C@H]3CC[C@H](c4ccc(OC)c(C)c4)CC3)C(=O)[C@H]3CC[C@H](OC)CC3)c2)s1` [Compound 9.33, trans-4-Methoxy-N-((trans-4-(4-methoxy-3-methylphenyl)cyclohexyl)methyl)-N-(3-(2-methoxythiazol-5-yl)phenyl)cyclohexanecarboxamide], the EC50 was at most 0.25 µM.
